Measurements taken from US8287888B2, “Thermosensitive polyphosphazene-bioactive molecule conjugates, preparation method thereof and use thereof” (Korea Institute of Science and Technology, priority 2006, dated 2012).
≈ marks a conversion by molar mass, not a printed value.

How the values were obtained:
[1] = Sol-gel phase transition with change of temperature (Brookfield rheometer); assay type: physicochemical; details: 10 wt % in phosphate buffered saline (pH 7.4)
Protocol: The poly(organophosphazene) conjugated with a drug or bioactivemolecules obtained in Examples 1 to 11 were respectively dissolved in phosphate buffered saline (pH 7.4) at 4° C. so as to make solutions with concentrations of 10 wt %. The solutions were put into a chamber of a Brookfield DV-III+ Rheometer equipped with a thermostatic bath (TC-501).

[2] = system: human breast adenocarcinoma (MCF-7); experiment: Anti-cancer activity in vitro, MTT; assay type: cell-based; details: for IC50: Homo sapiens
Protocol: (§1) In order to find out anticancer activity in vitro of the poly(organophosphazene) conjugated with anti-cancer drug of the present invention, the trial as follows was performed about the human breast adenocarcinoma (MCF-7, the Korea Cell Line Bank) and the human cervix adenocarcinoma (Hela, the Korea Cell Line Bank).
(§2) For the in vitro cell experiment, in order to measure the genesistasis concentration to 50% (IC50) toward the cancer cell of the poly(organophosphazene) conjugated with anticancer drug, the analytical method using 3-(4,5-dimethylthiazol-2-yl)-2,5-diphenyl-2H-tetrazolium bromide (MTT) was performed [T. Mosmann, J. Immunol. Method, 65, (1985) 55].
(§3) The materials for to measuring were respectively melted in the DMSO (dimethylsulfoxide) of the small amount, and they were diluted to the distilled water with 200 times. The materials solution were added to the cancer cell that is MCF-7(the Korea Cell Line Bank) and Hela (the Korea Cell Line Bank). Then, they were added to 96-well microtiter plater to 1.0×10^4 cell/ml (the concentration of the cancer cell). And they were cultivated for 2, 3, 4 days, respectively, with 37° C. in 5% CO2 condition.
(§4) MTT solution (20 μl) was mixed the cultivated cell with, and they were more cultivated for 4 hours with 37° C. in 5% CO2 condition. After the upper culture medium of each cell was removed, DMSO (100 μl) was added to a well and they were shaken in the room temperature to the plate shaker with for 20 minutes, thereby dissolving the formazan crystal generated by reducing of MTT.

[3] = system: human cervix adenocarcinoma (Hela); experiment: Anti-cancer activity in vitro, MTT; assay type: cell-based; details: for IC50: Homo sapiens, HeLa
Protocol: as §1, §2, §3, §4

stomach cancer, SNU-601 = experiment: Anti-cancer activity in vivo of hydrogel conjugated with paclitaxel; set-up: species or system nude mouse (Balb/C)
Protocol: The anti-cancer activity in vivo of the poly(organophosphazene) hydrogel conjugated with paclitaxel prepared by the method of Example 1 was determined by the following method.
A nude mouse (OrientalBio, Balb/C, female of 5-weeks old, 20 g) was used as an animal model for animal experimentation for an in vivo test. Cells of stomach cancer, SNU-601 (1×10^7 cells, 0.2 ml, the Korean Cell Line Bank), were injected into the dorsum of the mouse. A polymer solution containing the 10 wt % poly(organophosphazene)-paclitaxel conjugate of Example 1 in phosphate buffered saline (pH 7.4) was prepared. 0.1 ml and 0.2 ml of the solution were respectively injected into the cancer cells, and the change in the size of the cells was measured.
When the solution is injected in an amount as much as 0.1 ml, the amount of paclitaxel injected is 10 mg per 1 kg of the mouse weight. When the solution is injected in an amount as much as 0.2 ml, the amount of paclitaxel injected is […] per 1 kg of the mouse weight.
As the control group, the magnitude transition of the cancer cell into which paclitaxel was injected in the amount of 60 mg per 1 kg of the mouse weight and that of the cancer cell into which saline was administered instead of the anti-cancer drug were measured respectively. The number of mouse used was 10 heads respectively.

[4] = system: Stomach cancer cells, SNU-601; experiment: Anti-cancer activity in vivo of hydrogel conjugated with doxorubicin; set-up: species or system nude mouse (Balb/C)
Protocol: The anti-cancer activity in vivo of the poly(organophosphazene) hydrogel conjugated with doxorubicin prepared by the method of Example 5 was determined by the following method.
A nude mouse (OrientalBio, Balb/C, female of 5-weeks old, 20 g) was used as an animal model for animal experimentation for an in vivo test. Stomach cancer cells, SNU-601 (1×10^7 cells, 0.2 ml, the Korean Cell Line Bank), were injected into the dorsum of the mouse. A polymer solution containing the 10 wt % poly(organophosphazene)-doxorubicin conjugate of Example 5 in phosphate buffered saline (pH 7.4) was prepared. 0.1 ml and 0.2 ml of the solution was respectively injected into the cancer cells, and the change in the size of the cancer cells was measured.
When the solution is injected in an amount as much as 0.1 ml, the amount of doxorubicin injected is 30 mg per 1 kg of the mouse weight. When the solution is injected in an amount as much as 0.2 ml, the amount of doxorubicin injected is 60 mg per 1 kg of the mouse weight.
As the control group, the magnitude transition of the cancer cell into which doxorubicin was injected in the amount of 30 mg per 1 kg of the mouse weight and that to which saline is administered instead of the anti-cancer drug were measured respectively. The number of mouse used was 10 heads respectively.

poly[(isoleucineethylester)(aminomethoxypolyethyleneglycol 550)(glycylglycine)(glycylglycylpaclitaxel)phosphazene] [Example 2]
Gel solidity (maximum viscosity of the polymer solution) [1]: 230 Pa · s
Max. gelling temp. (temperature where the viscosity of the polymer solution reaches the maximum point) [1]: 38 °C
Anti-cancer activity [IC50] ([2]; MCF-7, 2nd day): 0.027 µg/mL
Anti-cancer activity [IC50] ([2]; MCF-7, 3rd day): 0.021 µg/mL
Anti-cancer activity [IC50] ([2]; MCF-7, 4th day): 0.007 µg/mL
Anti-cancer activity [IC50] ([3]; 2nd day): 0.082 µg/mL
Anti-cancer activity [IC50] ([3]; 3rd day): 0.079 µg/mL
Anti-cancer activity [IC50] ([3]; 4th day): 0.048 µg/mL

CC(=O)O[C@H]1C(=O)[C@@]2(C)[C@H]([C@H](OC(=O)c3ccccc3)[C@]3(O)C[C@H](OC(=O)[C@H](O)[C@@H](NC(=O)c4ccccc4)c4ccccc4)C(C)=C1C3(C)C)[C@]1(OC(C)=O)CO[C@@H]1C[C@@H]2O [paclitaxel, reference compound]
IC50 ([2]; MCF7, MCF-7, 2nd day): 0.022 µg/mL (≈ 0.0258 µM)
IC50 ([2]; MCF7, MCF-7, 3rd day): 0.006 µg/mL (≈ 0.00703 µM)
IC50 ([2]; MCF7, MCF-7, 4th day): 0.002 µg/mL (≈ 0.00234 µM)
IC50 ([3]; 2nd day): 0.083 µg/mL (≈ 0.0972 µM)
IC50 ([3]; 3rd day): 0.021 µg/mL (≈ 0.0246 µM)
IC50 ([3]; 4th day): 0.014 µg/mL (≈ 0.0164 µM)
mice died due to toxicity (stomach cancer, SNU-601; 60 mg/kg, after 10 days, 10 mice per group): 8 mouse heads

poly[(isoleucineethylester)(aminomethoxypolyethyleneglycol 550)(glycylglycine)(glycylglycylglycin-arginine-glycin-asparagine-cerinicacidpeptied)phosphazene] [Example 7]
Gel solidity (maximum viscosity of the polymer solution) [1]: 145 Pa · s
Max. gelling temp. (temperature where the viscosity of the polymer solution reaches the maximum point) [1]: 42 °C

poly[(isoleucineethylester)(aminomethoxypolyethyleneglycol 550)(glycylglycine)(glycylglycylpaclitaxel)phosphazene] [Example 1]
Gel solidity (maximum viscosity of the polymer solution) [1]: 128 Pa · s
Max. gelling temp. (temperature where the viscosity of the polymer solution reaches the maximum point) [1]: 40 °C
Anti-cancer activity [IC50] ([2]; MCF-7, 2nd day): 0.025 µg/mL
Anti-cancer activity [IC50] ([2]; MCF-7, 3rd day): 0.018 µg/mL
Anti-cancer activity [IC50] ([2]; MCF-7, 4th day): 0.003 µg/mL
Anti-cancer activity [IC50] ([3]; 2nd day): 0.099 µg/mL
Anti-cancer activity [IC50] ([3]; 3rd day): 0.057 µg/mL
Anti-cancer activity [IC50] ([3]; 4th day): 0.022 µg/mL
size of the cancer cells decreased to (stomach cancer, SNU-601; 0.1 ml intratumoral (paclitaxel 10 mg/kg), after 26 days): 60%
size of the cancer cells decreased to (stomach cancer, SNU-601; 0.1 ml intratumoral (paclitaxel 10 mg/kg), after 34 days): 57%
size of the cancer cells decreased to (stomach cancer, SNU-601; 0.2 ml intratumoral (paclitaxel 30 mg/kg), after 26 days): 81%
size of the cancer cells decreased to (stomach cancer, SNU-601; 0.2 ml intratumoral (paclitaxel 30 mg/kg), after 34 days): 81%

poly[(isoleucineethylester)(aminomethoxypolyethyleneglycol 550)(glycylglycine)(glycylglycylglycylethylester)(glycylglycylglycin-arginine-glycin-asparagine-cerinicacidpeptied)phosphazene] [Example 10]
Gel solidity (maximum viscosity of the polymer solution) [1]: 238 Pa · s
Max. gelling temp. (temperature where the viscosity of the polymer solution reaches the maximum point) [1]: 42 °C

COc1cccc2c1C(=O)c1c(O)c3c(c(O)c1C2=O)C[C@@](O)(C(=O)CO)C[C@@H]3O[C@H]1C[C@H](N)[C@H](O)[C@H](C)O1 [doxorubicin, reference compound]
IC50 ([2]; MCF7, MCF-7, 2nd day): 2.29 µg/mL (≈ 4.22 µM)
IC50 ([2]; MCF7, MCF-7, 3rd day): 1.69 µg/mL (≈ 3.11 µM)
IC50 ([2]; MCF7, MCF-7, 4th day): 1 µg/mL (≈ 1.85 µM)
IC50 ([3]; 2nd day): 0.321 µg/mL (≈ 0.591 µM)
IC50 ([3]; 3rd day): 0.692 µg/mL (≈ 1.27 µM)
IC50 ([3]; 4th day): 0.19 µg/mL (≈ 0.35 µM)
mortality due to toxicity ([4]; free doxorubicin 30 mg/kg, after 14 days, 10 mice per group): all of mouse died

poly[(isoleucineethylester)(aminomethoxypolyethyleneglycol 550)(glycylglycine)(glycylglycin)(glycylglycylglycin-arginine-glycin-asparagine-cerinicacidpeptied)phosphazene] [Example 11]
Gel solidity (maximum viscosity of the polymer solution) [1]: 155 Pa · s
Max. gelling temp. (temperature where the viscosity of the polymer solution reaches the maximum point) [1]: 44 °C

poly[(isoleucineethylester)(aminomethoxypolyethyleneglycol 550)(glycylglycine)(glycylglycylglycin-arginine-glycin-asparagine-cerinicacidpeptied)phosphazene] [Example 8]
Gel solidity (maximum viscosity of the polymer solution) [1]: 318 Pa · s
Max. gelling temp. (temperature where the viscosity of the polymer solution reaches the maximum point) [1]: 39 °C

poly[(isoleucineethylester)(aminomethoxypolyethyleneglycol 550)(glycylglycine)(glycylglycyldoxorubicin)phosphazene] [Example 5]
Gel solidity (maximum viscosity of the polymer solution) [1]: 1477 Pa · s
Max. gelling temp. (temperature where the viscosity of the polymer solution reaches the maximum point) [1]: 39 °C
size of the cancer cells decreased to ([4]; 0.1 ml intratumoral (doxorubicin 30 mg/kg), after 14 days): 68%
size of the cancer cells decreased to ([4]; 0.1 ml intratumoral (doxorubicin 30 mg/kg), after 26 days): 173%
size of the cancer cells decreased to ([4]; 0.1 ml intratumoral (doxorubicin 30 mg/kg), after 28 days): 168%
size of the cancer cells decreased to ([4]; 0.2 ml intratumoral (doxorubicin 60 mg/kg), after 14 days): 155%
size of the cancer cells decreased to ([4]; 0.2 ml intratumoral (doxorubicin 60 mg/kg), after 22 days): 195%
size of the cancer cells decreased to ([4]; 0.2 ml intratumoral (doxorubicin 60 mg/kg), after 28 days): 182%
mortality ([4]; doxorubicin concentration of 30 mg/kg as hydrogel, 10 mice per group): did not die
mortality ([4]; doxorubicin concentration of 60 mg/kg as hydrogel, 10 mice per group): did not die

poly[(isoleucineethylester)(aminomethoxypolyethyleneglycol 750)(glycylglycine)(glycylglycyldoxorubicin)phosphazene] [Example 6]
Gel solidity (maximum viscosity of the polymer solution) [1]: 313 Pa · s
Max. gelling temp. (temperature where the viscosity of the polymer solution reaches the maximum point) [1]: 46 °C

poly[(isoleucineethylester)(aminomethoxypolyethyleneglycol 550)(glycylglycine)(glycylglycyldoxorubicin)phosphazene] [Example 4]
Gel solidity (maximum viscosity of the polymer solution) [1]: 88 Pa · s
Max. gelling temp. (temperature where the viscosity of the polymer solution reaches the maximum point) [1]: 37 °C
Anti-cancer activity [IC50] ([2]; MCF-7, 2nd day): 2.829 µg/mL
Anti-cancer activity [IC50] ([2]; MCF-7, 3rd day): 2.801 µg/mL
Anti-cancer activity [IC50] ([2]; MCF-7, 4th day): 1.641 µg/mL
Anti-cancer activity [IC50] ([3]; 2nd day): 1.425 µg/mL
Anti-cancer activity [IC50] ([3]; 3rd day): 0.892 µg/mL
Anti-cancer activity [IC50] ([3]; 4th day): 0.283 µg/mL
